Experimental data from US20050261260A1, “Combination of a CDK inhibitor and mitoxantrone” (Cyclacel Limited, priority 2002, published 2005).
In brackets after ≈: the same amount, converted by molar mass. Several values for one entry are separate records, joined by “and”; a condition that tells them apart may be missing. Equal values may be shown once. Read-outs that look alike come from different tables or passages of the source.

What was measured:
[1] = system: prostate tumor cells (PC-3); test: cells; details: Homo sapiens, 24 h, read-out: IC50 (concentration listed as 100 % IC50), PC-3
[2] = system: prostate tumor cells (PC-3)
[3] = concurrent 24 h exposure, % IC50 0/100: roscovitine 0, mitox. 12.50 ng/ml
[4] = mitoxantrone 24 h then roscovitine 24 h, % IC50 0/100: roscovitine 0, mitox. 15.00 ng/ml
[5] = roscovitine 24 h then mitoxantrone 24 h, % IC50 0/100: roscovitine 0, mitox. 10.00 ng/ml
[6] = mitoxantrone 24 h then roscovitine 24 h, % IC50 100/0: roscovitine 30.00 ug/ml, mitox. 0

Structure (SMILES)	IC50 ([1]; Table 3, roscovitine 24 h then mitoxantrone 24 h)	IC50 ([1]; Table 5, mitoxantrone 24 h then roscovitine 24 h)	IC50 ([1]; Table 7, concurrent 24 h exposure)	% Abs [2, 3]	% Response [2, 3]	Mean (absorbance) [2, 3]	Well 1-3 (absorbance) [2, 3]	% Abs [2, 4]	% Response [2, 4]	Mean (absorbance) [2, 4]	Well 1-3 (absorbance) [2, 4]	% Abs [2, 5]	% Response [2, 5]	Mean (absorbance) [2, 5]	Well 1-3 (absorbance) [2, 5]	% Abs [2, 6]	% Response [2, 6]	Mean (absorbance) [2, 6]	Well 1-3 (absorbance) [2, 6]
O=C1c2c(O)ccc(O)c2C(=O)c2c(NCCNCCO)ccc(NCCNCCO)c21 [Mitoxantrone, 1,4-dihydroxy-5,8-bis[{2-[(2-hydroxyethyl)amino]ethyl}amino]-9,10-anthracendione]	0.01 µg/mL (≈ 0.0225 µM)	0.015 µg/mL (≈ 0.0337 µM)	0.0125 µg/mL (≈ 0.0281 µM)	51.8% and 54.7%	45.3%	0.418	0.415 and 0.424 and 0.414	47.0%	53.0%	0.367	0.373 and 0.371 and 0.358	62.7%	37.3%	0.501	0.532 and 0.487 and 0.483				
CC[C@H](CO)Nc1nc(NCc2ccccc2)c2ncn(C(C)C)c2n1 [Roscovitine, 6-benzylamino-2-[(R)-1-ethyl-2-hydroxyethylamino]-9-isopropylpurine]																21.9%	78.1%	0.171	0.165 and 0.162 and 0.186
